Test results as given in US11840513B2, “Substituted nicotinimide inhibitors of BTK for treating cancer” (GUANGZHOU INNOCARE PHARMA TECH CO., LTD., priority 2013, dated 2023).

Target: SRC (Homo sapiens (Human), UniProt P12931)
Experiment: kinase-tagged phage / affinity bead competition binding screen at 1000 nM (qPCR readout)
Conditions: 1000 nM screen

SRC, sequence (P12931 whole entry, looked up): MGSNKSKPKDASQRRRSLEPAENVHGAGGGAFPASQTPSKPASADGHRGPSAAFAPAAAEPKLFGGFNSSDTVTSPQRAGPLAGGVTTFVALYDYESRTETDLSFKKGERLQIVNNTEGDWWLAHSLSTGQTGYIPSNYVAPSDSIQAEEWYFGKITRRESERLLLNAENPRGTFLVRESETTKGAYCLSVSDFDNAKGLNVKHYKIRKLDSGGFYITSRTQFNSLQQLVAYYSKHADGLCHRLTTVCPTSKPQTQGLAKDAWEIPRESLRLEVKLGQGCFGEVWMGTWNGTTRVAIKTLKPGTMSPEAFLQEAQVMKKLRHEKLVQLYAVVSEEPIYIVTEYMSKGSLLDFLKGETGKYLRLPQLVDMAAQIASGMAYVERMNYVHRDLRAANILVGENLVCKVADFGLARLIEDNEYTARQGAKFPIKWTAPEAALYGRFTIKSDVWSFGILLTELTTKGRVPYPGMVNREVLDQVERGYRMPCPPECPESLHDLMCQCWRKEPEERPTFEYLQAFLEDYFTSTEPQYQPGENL

C=CC(=O)N1CCN(c2ccc(C(N)=O)c(-c3ccc(Oc4ccccc4)cc3)n2)CC1 [Example 5, 6-(4-acryloylpiperazin-1-yl)-2-(4-phenoxyphenyl)nicotinamide]
Fold Difference (BTK vs SRC): >100×
